From patent publication US20070219236A1, “Dialkoxy-Imidazopyridines Derivatives” (Atlanta Pharma AG, priority 2004, published 2007)

System: pentagastrin-stimulated acid secretion of the perfused rat stomach
Assay: Secretion-inhibiting action on the perfused rat stomach (pentagastrin-stimulated acid secretion)
Assay type: in vivo
Conditions: anesthetized CD rat, female; dose 2 μmol/kg i.d. (intraduodenal); pentagastrin 1 μg/kg i.v. continuous infusion
Source text: Testing of the Secretion-Inhibiting Action on the Perfused Rat Stomach
In Table A which follows, the influence of the compounds according to the invention on the pentagastrin-stimulated acid secretion of the perfused rat stomach after intraduodenal administration in vivo is shown.
The abdomen of anesthetized rats (CD rat, female, 200-250 g; 1.5 g/kg i.m. urethane) was opened after tracheotomy by a median upper abdominal incision and a PVC catheter was fixed transorally in the esophagus and another via the pylorus such that the ends of the tubes just projected into the gastric lumen. The catheter leading from the pylorus led outward into the right abdominal wall through a side opening.
After thorough rinsing (about 50-100 ml), warm (37° C.) physiological NaCl solution was continuously passed through the stomach (0.5 ml/min, pH 6.8-6.9; Braun-Unita I). The pH (pH meter 632, glass electrode EA 147; Φ=5 mm, Metrohm) and, by titration with a freshly prepared 0.01N NaOH solution to pH 7 (Dosimat 665 Metrohm), the secreted HCl were determined in the effluent in each case collected at an interval of 15 minutes.
The gastric secretion was stimulated by continuous infusion of 1 μg/kg (=1.65 ml/h) of i.v. pentagastrin (left femoral vein) about 30 min after the end of the operation (i.e. after determination of 2 preliminary fractions). The substances to be tested were administered intraduodenally in a 2.5 ml/kg liquid volume 60 min after the start of the continuous pentagastrin infusion.
The body temperature of the animals was kept at a constant 37.8-38° C. by infrared irradiation and heat pads (automatic, stepless control by means of a rectal temperature sensor).

Structure (SMILES) | Inhibition of acid secretion (%)
COc1ccc2nc([S@@+]([O-])Cc3nccc(OC)c3OC)[nH]c2n1 [Example 2, (S)-2-(3,4-Dimethoxy-pyridine-2-ylmethanesulfinyl)-5-methoxy-3H-imidazo[4,5-b]pyridine] | >50
COc1ccc2nc([S+]([O-])Cc3nccc(OC)c3OC)[nH]c2n1 (stereo not drawn) [Example 1, 2-(3,4-Dimethoxy-pyridine-2-ylmethanesulfinyl)-5-methoxy-3H-imidazo[4,5-b]pyridine] | >50
COc1ccc2nc([S@+]([O-])Cc3nccc(OC)c3OC)[nH]c2n1 [Example 3, (R)-2-(3,4-Dimethoxy-pyridine-2-ylmethanesulfinyl)-5-methoxy-3H-imidazo[4,5-b]pyridine] | >50
